Experimental data as given in US11147818B2, “Combination therapies” (Infinity Pharmaceuticals, Inc., priority 2016, dated 2021).

How the values were obtained:
Test in all cases: Combination study of Compound 1 with selinexor, ATPLite cell growth/viability, 9x9 dose matrix
Assay type in all cases: cell-based
Conditions in all cases: Compound 1 in combination with Selinexor, 72 hours
H9 cell line = tested on: H9 cell line
Procedure: (§1) The synergistic effects of compounds provided herein and another therapeutic agent were carried out. The method is described as follows. Cells were thawed from a liquid nitrogen preserved state. Once cells were expanded and divided at their expected doubling times, screening began. Cells were seeded in growth media in either black 1536-well or 384-well tissue culture treated plates. Cells were then equilibrated in assay plates via centrifugation and placed in incubators attached to the Dosing Modules at 37° C. for 24 hours before treatment. […] These Tzero (To) plates were read using ultra-sensitive luminescence on Envision plate readers (Perkin Elmer). Treated assay plates were incubated with compound for 72 hours. After 72 hours, plates were developed for endpoint analysis using ATPLite. All data points were collected via automated processes, quality controlled and analyzed using Zalicus software. Assay plates were accepted if they passed the following quality control standards: relative luciferase values were consistent throughout the entire experiment, Z-factor scores were greater than 0.6, untreated/vehicle controls behaved consistently on the plate.
Inhibition (I) is defined as I=(1−T/V)*100% where T is treated cell count and V is untreated (vehicle) cell count (at 72 hours). I ranges from 0% (when T=V) to 100% (when T=0). The IC50 value is defined as the drug concentration needed to inhibit 50% of the cell growth compared to growth of the vehicle treated cells (the drug concentration which gives I=50%). The measure of effect in the experiment can be the inhibition of cellular response relative to the untreated level (vehicle alone). For untreated vehicle and treated levels V and T, a fractional inhibition I=1-T/V is calculated. […] When activity ratios (e.g., fold increase over stimulated control) are being used, the effect can be measured using an induction I=ln(T/V). […]
Growth Inhibition (GI) is used as a measure of cell viability. The cell viability of vehicle is measured at the time of dosing (TO) and after 72 hours (T72). A GI reading of 0% represents no growth inhibition—T72 compound-treated and T72 vehicle signals are matched. A GI reading of 100% represents complete growth inhibition—T72 compound-treated and TO vehicle signals are matched. […] A GI reading of 200% represents complete death of all cells in the culture well. […] GI is calculated by applying the following test and equation: […]
Combination analysis data were collected in a 9×9 dose matrix. Synergy was calculated by comparing a combination's response to those of its single compound, against the drug-with-itself dose-additive reference model. Deviations from dose additivity may be assessed visually on an isobologram or numerically with a Combination Index (CI). […]

MJ (G11) cell line = tested on: MJ (G11) cell line
Procedure: as §1
(§2) Inhibition (I) is defined as I=(1−T/V)*100% where T is treated cell count and V is untreated (vehicle) cell count (at 72 hours). I ranges from 0% (when T=V) to 100% (when T=0). The IC50 value is defined as the drug concentration needed to inhibit 50% of the cell growth compared to growth of the vehicle treated cells (the drug concentration which gives I=50%). The measure of effect in the experiment can be the inhibition of cellular response relative to the untreated level (vehicle alone). For untreated vehicle and treated levels V and T, a fractional inhibition I=1-T/V is calculated. The inhibition ranges from 0% at the untreated level to 100% when T=0. Inhibition levels are negative for agents that actually increase levels. Other effect measures, such as an activity ratio r=T/V may be more appropriate for some assays. When activity ratios (e.g., fold increase over stimulated control) are being used, the effect can be measured using an induction I=ln(T/V). With this definition, all effect expressions are the same as for inhibition.
(§3) Growth Inhibition (GI) is used as a measure of cell viability. The cell viability of vehicle is measured at the time of dosing (TO) and after 72 hours (T72). A GI reading of 0% represents no growth inhibition—T72 compound-treated and T72 vehicle signals are matched. A GI reading of 100% represents complete growth inhibition—T72 compound-treated and TO vehicle signals are matched. […] A GI reading of 200% represents complete death of all cells in the culture well. Compounds reaching an activity plateau of GI 200% are considered cytotoxic. GI is calculated by applying the following test and equation:
(§4) [formula] [formula] where T is the signal measure for a test article, V is the vehicle-treated control measure, and Vo is the vehicle control measure at time zero. This formula is derived from the Growth Inhibition calculation used in the National Cancer Institute's NCI-60 high-throughput screen.
(§5) Combination analysis data were collected in a 9×9 dose matrix. Synergy was calculated by comparing a combination's response to those of its single compound, against the drug-with-itself dose-additive reference model. Deviations from dose additivity may be assessed visually on an isobologram or numerically with a Combination Index (CI). See the tables below for CI at 50% inhibition and CI at 50% growth inhibition. Additive effect is CI=1.0. Synergistic effect is CI<1. Antagonistic effect is CI>1.0.
(§6) To measure combination effects in excess of Loewe additivity, a scalar measure to characterize the strength of synergistic interaction termed the Synergy Score was devised. […]

HH cell line = tested on: HH cell line
Procedure: as §1, §2, §3, §4, §5, §6

HuT 102 cell line = tested on: HuT 102 cell line
Procedure: as §1, §2, §3, §4, §5, §6

HuT 78 cell line = tested on: HuT 78 cell line
Procedure: as §1, §2, §3, §4, §5, §6

SMILES: O=C(/C=C\n1cnc(-c2cc(C(F)(F)F)cc(C(F)(F)F)c2)n1)NNc1cnccn1 [Selinexor, (Z)-3-(3-(3,5-bis(trifluoromethyl)phenyl)-1H-1,2,4-triazol-1-yl)—N′-(pyrazin-2-yl)acrylohydrazide]
- CI50 growth inhibition (H9 cell line): A3 (A3=>3)
- CI50 inhibition (H9 cell line): A3 (A3=>3)
- Synergy Score growth inhibition (H9 cell line): 10.4
- Synergy Score inhibition (H9 cell line): 3.23
- CI50 growth inhibition (MJ (G11) cell line): A3 (A3=>3)
- CI50 inhibition (MJ (G11) cell line): A2 (A2=1 to <3)
- Synergy Score growth inhibition (MJ (G11) cell line): 4.50
- Synergy Score inhibition (MJ (G11) cell line): 1.50
- CI50 growth inhibition (HH cell line): A2 (A2=1 to <3)
- CI50 inhibition (HH cell line): A2 (A2=1 to <3)
- Synergy Score growth inhibition (HH cell line): 1.53
- Synergy Score inhibition (HH cell line): 1.25
- CI50 inhibition (HuT 102 cell line): A1 (A1=0.0001 to <1)
- Synergy Score inhibition (HuT 102 cell line): 0.82
- CI50 growth inhibition (HuT 78 cell line): A3 (A3=>3)
- CI50 inhibition (HuT 78 cell line): A2 (A2=1 to <3)
- Synergy Score growth inhibition (HuT 78 cell line): 5.85
- Synergy Score inhibition (HuT 78 cell line): 1.94
